33 compounds from US6472418B1, “Non-peptide NK1 receptors antagonists” (Warner-Lambert Company, priority 1998, dated 2002) can be followed below.

A value given as a limit tells only on which side of the number the result lay.

The term IC50 denotes the concentration that inhibits the measured activity by half.

The target in the experiment is T1, Human NK1 Receptor (Homo sapiens, UniProt P25103).
T1 construct: endogenous in cells; host or cells: Human lymphoma IM9 cells (whole cells)
T1 sequence (P25103 whole entry): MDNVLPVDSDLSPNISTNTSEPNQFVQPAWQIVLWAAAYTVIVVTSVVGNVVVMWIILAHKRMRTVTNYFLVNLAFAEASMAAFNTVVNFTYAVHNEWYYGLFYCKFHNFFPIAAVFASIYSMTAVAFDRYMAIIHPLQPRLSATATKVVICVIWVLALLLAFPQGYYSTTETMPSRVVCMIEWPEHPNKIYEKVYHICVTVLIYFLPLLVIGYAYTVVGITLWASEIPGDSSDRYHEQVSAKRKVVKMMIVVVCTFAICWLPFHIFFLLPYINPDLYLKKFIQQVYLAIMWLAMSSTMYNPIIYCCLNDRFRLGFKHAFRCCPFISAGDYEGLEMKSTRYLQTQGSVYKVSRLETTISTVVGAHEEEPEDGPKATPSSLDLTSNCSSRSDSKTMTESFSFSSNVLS
Nature of the experiment: In Vitro Human NK1 Receptor Binding Assay ([125I]Bolton-Hunter substance P displacement, IM9 cells). Conditions: human NK1 receptor, IM9 cells, [125I]Bolton-Hunter substance P; read-out: IC50 (nM) hNK1. In a few lines: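 Radioligand displacement on whole IM9 human lymphoma cells (2.5×10^6 cells/mL) using [125I]Bolton-Hunter substance P (0.05-0.1 nM), 50 min at 21° C in Tris pH 7.4/MnCl2 buffer with protease inhibitors. Non-specific binding defined by […] [Sar9, Met(O2)11] substance P. Filtration, gamma counting, iterative curve fitting.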
On to `CC(NC(=O)C(C)(Cc1c[nH]c2ccccc12)NCc1cc2ccccc2o1)c1ccccc1N` (stereo not drawn) [compound 36, N-[1-(2-Amino-phenyl)-ethyl]-2-[(benzofuran-2-ylmethyl)-amino]-3-(1H-indol-3-yl)-2-methyl-propionamide], for which the IC50 turned out to be 1620 nM.

On to `CC(NC(=O)C(C)(Cc1c[nH]c2ccccc12)NCc1cc2ccccc2o1)c1cccc(N)c1` (stereo not drawn) [compound 37, N-[1-(3-Amino-phenyl)-ethyl]-2-[(benzofuran-2-ylmethyl)-amino]-3-(1H-indol-3-yl)-2-methyl-propionamide], for which the IC50 amounted to 364 nM.

Consider `CC(NC(=O)C(C)(Cc1c[nH]c2ccccc12)NCc1cc2ccccc2o1)c1ccc(N)cc1` (stereo not drawn) [compound 38, N-[1-(4-Amino-phenyl)-ethyl]-2-[(benzofuran-2-ylmethyl)-amino]-3-(1H-indol-3-yl)-2-methyl-propionamide], for which the IC50 turned out to be 141 nM.

Regarding `CC(NC(=O)C(C)(Cc1c[nH]c2ccccc12)NCc1cc2ccccc2o1)c1ccc(N(C)C)cc1` (stereo not drawn) [compound 39, 2-[(Benzofuran-2-ylmethyl)-amino]-N-[1-(4-dimethylamino-phenyl)-ethyl]-3-(1H-indol-3-yl)-2-methyl-propionamide], the IC50 amounted to 863 nM.

As to `CC(NC(=O)C(C)(Cc1c[nH]c2ccccc12)NCc1cc2ccccc2o1)c1cccc(N(C)C)c1` (stereo not drawn) [compound 40, 2-[(Benzofuran-2-ylmethyl)-amino)-N-[1-(3-dimethylamino-phenyl)-ethyl]-3-(1H-indol-3-yl)-2-methyl-propionamide], the IC50 came out at 1060 nM.

`CC(NC(=O)C(C)(Cc1c[nH]c2ccccc12)NCc1cc2ccccc2o1)c1ccsc1` (stereo not drawn) [compound 41, 2-[(Benzofuran-2-ylmethyl)-amino]-3-(1H-indol-3-yl)-2-methyl-N-(1-thiophen-3-yl-ethyl)-propionamide]: the IC50 was determined as 19 nM.

On to `CC(NC(=O)C(C)(Cc1c[nH]c2ccccc12)NCc1cc2ccccc2o1)c1ccccc1` (stereo not drawn) [compound 42, 2-[(Benzofuran-2-ylmethyl)-amino]-3-(1H-indol-3-yl)-2-methyl-N-(1-phenyl-ethyl)-propionamide], for which the half-inhibitory concentration (IC50) was found to be 261 nM.

Take `CC(Cc1c[nH]c2ccccc12)(NCc1cc2ccccc2o1)C(=O)NCc1ncc(C(=O)O)c(O)n1` (stereo not drawn) [compound 43, 2-{[2-[(Benzofuran-2-ylmethyl)-amino]-3-(1H-indol-3-yl)-2-methyl-propionylamino]-methyl}-4-hydroxy-pyrimidine-5-carboxylic acid]: the IC50 was determined as 3610 nM.

For `CC(NC(=O)C(C)(Cc1c[nH]c2ccccc12)NCc1cc2ccccc2o1)c1cccnc1` (stereo not drawn) [compound 44, 2-[(Benzofuran-2-ylmethyl)-amino]-3-(1H-indol-3-yl)-2-methyl-N-(1-pyridin-3-yl-ethyl)-propionamide], the IC50 came out at 151 nM.

On to `CC(Cc1c[nH]c2ccccc12)(NCc1cc2ccccc2o1)C(=O)NCCc1ccccn1` (stereo not drawn) [compound 45, 2-[(Benzofuran-2-ylmethyl)-amino]-3-(1H-indol-3-yl)-2-methyl-N-(2-pyridin-2-yl-ethyl)-propionamide], for which the IC50 worked out at 913 nM.

As for `CC(Cc1c[nH]c2ccccc12)(NCc1cc2ccccc2o1)C(=O)NCc1ccc(Cl)cc1Cl` (stereo not drawn) [compound 46, 2-[(Benzofuran-2-ylmethyl)-amino]-N-(2,4-dichloro-benzyl)-3-(1H-indol-3-yl)-2-methyl-propionamide], the IC50 is 1560 nM.

In the case of `CC(Cc1c[nH]c2ccccc12)(NCc1cc2ccccc2o1)C(=O)NCCc1ccc(S(N)(=O)=O)cc1` (stereo not drawn) [compound 47, 2-[(Benzofuran-2-ylmethyl)-amino]-3-(1H-indol-3-yl)-2-methyl-N-[2-(4-sulfamoyl-phenyl)-ethyl]-propionamide], the IC50 was 7620 nM.

As for `CC(Cc1c[nH]c2ccccc12)(NCc1cc2ccccc2o1)C(=O)NCc1c(N)cccc1F` (stereo not drawn) [compound 48, N-(2-Amino-6-fluoro-benzyl)-2-[(benzofuran-2-ylmethyl)-amino]-3-(1H-indol-3-yl)-2-methyl-propionamide], the IC50 amounted to 6420 nM.

With `CC(Cc1c[nH]c2ccccc12)(NCc1cc2ccccc2o1)C(=O)NCC1CCCCC1O` (stereo not drawn) [compound 49, 2-[(Benzofuran-2-ylmethyl)-amino]-N (2-hydroxy-cyclohexylmethyl)-3-(1H-indol-3-yl)-2-methyl-propionamide], the IC50 stood at 1550 nM.

On to `CC(Cc1c[nH]c2ccccc12)(NCc1cc2ccccc2o1)C(=O)NCC(O)c1ccccc1` (stereo not drawn) [compound 50, 2-[(Benzofuran-2-ylmethyl)-amino]-N-(2-hydroxy-2-phenyl-ethyl)-3-(1H-indol-3-yl)-2-methyl-propionamide], for which the IC50 was 1330 nM.

With `CC(Cc1c[nH]c2ccccc12)(NCc1cc2ccccc2o1)C(=O)NCc1cc(C(F)(F)F)cc(C(F)(F)F)c1` (stereo not drawn) [compound 51, 2-[(Benzofuran-2-ylmethyl)-amino]-N-(3,5-bis-trifluoromethyl-benzyl)-3-(1H-indol-3-yl)-2-methyl-propionamide], the IC50 was found to be 179 nM.

On to `CN1CCCC1CCNC(=O)C(C)(Cc1c[nH]c2ccccc12)NCc1cc2ccccc2o1` (stereo not drawn) [compound 52, 2-[(Benzofuran-2-ylmethyl)-amino]-3-(1H-indol-3-yl)-2-methyl-N-[2-(1-methyl-pyrrolidin-2-yl)-ethyl]-propionamide], for which the IC50 is over 10000 nM.

With `CC(Cc1c[nH]c2ccccc12)(NCc1cc2ccccc2o1)C(=O)NCCc1ccccc1` (stereo not drawn) [compound 53, 2-[(Benzofuran-2-ylmethyl)-amino]-3-(1H-indol-3-yl)-2-methyl-N-phenethyl-propionamide], the IC50 was determined as 262 nM.

Consider `Cc1cccc(CNC(=O)C(C)(Cc2c[nH]c3ccccc23)NCc2cc3ccccc3o2)c1C` (stereo not drawn) [compound 54, 2-[(Benzofuran-2-ylmethyl)-amino]-N-(2,3-dimethyl-benzyl)-3-(1H-indol-3-yl)-2-methyl-propionamide], for which the IC50 stood at 834 nM.

Turning to `COc1cccc(CNC(=O)C(C)(Cc2c[nH]c3ccccc23)NCc2cc3ccccc3o2)c1` (stereo not drawn) [compound 55, 2-[(Benzofuran-2-ylmethyl)-amino]-3-(1H-indol-3-yl)-N-(3-methoxy-benzyl)-2-methyl-propionamide], the half-inhibitory concentration (IC50) was 643 nM.

In the case of `CC(Cc1c[nH]c2ccccc12)(NCc1cc2ccccc2o1)C(=O)NCCc1ccc(N)cc1` (stereo not drawn) [compound 56, N-[2-(4-Amino-phenyl)-ethyl]-2-[(benzofuran-2-ylmethyl)-amino]-3-(1H-indol-3-yl)-2-methyl-propionamide], the IC50 came out at 3230 nM.

As for `CC(Cc1c[nH]c2ccccc12)(NCc1cc2ccccc2o1)C(=O)NCc1cccc(OC(F)(F)F)c1` (stereo not drawn) [compound 59, 2-[(Benzofuran-2-ylmethyl)-amino]-3-(1H-indol-3-yl)-2-methyl-N-(3-trifluoromethoxy-benzyl)-propionamide], the IC50 was over 10000 nM.

`CN(C)c1ccc(CNC(=O)C(C)(Cc2c[nH]c3ccccc23)NCc2cc3ccccc3o2)cc1` (stereo not drawn) [compound 60, 2-[(Benzofuran-2-ylmethyl)-amino]-N-(4-dimethylamino-benzyl)-3-(1H-indol-3-yl)-2-methyl-propionamide]: the half-inhibitory concentration (IC50) turned out to be 964 nM.

Turning to `CC(Cc1c[nH]c2ccccc12)(NCc1cc2ccccc2o1)C(=O)NCc1ccc(F)cc1` (stereo not drawn) [compound 61, 2-[(Benzofuran-2-ylmethyl)-amino]-N-(4-fluoro-benzyl)-3-(1H-indol-3-yl)-2-methyl-propionamide], the IC50 amounted to 61 nM.

As for `CC(Cc1c[nH]c2ccccc12)(NCc1cc2ccccc2o1)C(=O)NCc1ccc(N)cc1` (stereo not drawn) [compound 62, N-(4-Amino-benzyl)-2-[(benzofuran-2-ylmethyl)-amino]-3-(1H-indol-3-yl)-2-methyl-propionamide], the IC50 turned out to be 837 nM.

Consider `CCC(NC(=O)C(C)(Cc1c[nH]c2ccccc12)NCc1cc2ccccc2o1)c1ccccc1` (stereo not drawn) [compound 63, 2-[(Benzofuran-2-ylmethyl)-amino]-3-(1H-indol-3-yl)-2-methyl-N-(1-phenyl-propyl)-propionamide], for which the half-inhibitory concentration (IC50) worked out at 58 nM.

Turning to `CC(Cc1c[nH]c2ccccc12)(NCc1cc2ccccc2o1)C(=O)NCc1ccc(Cl)cc1` (stereo not drawn) [compound 64, 2-[(Benzofuran-2-ylmethyl)-amino]-N-(4-chloro-benzyl)-3-(1H-indol-3-yl)-2-methyl-propionamide], the IC50 stood at 76 nM.

In the case of `CC(Cc1c[nH]c2ccccc12)(NCc1cc2ccccc2o1)C(=O)NCc1ccccc1Br` (stereo not drawn) [compound 65, 2-[(Benzofuran-2-ylmethyl)-amino]-N-(2-bromo-benzyl)-3-(1H-indol-3-yl)-2-methyl-propionamide], the IC50 was found to be 700 nM.

`CC(Cc1c[nH]c2ccccc12)(NCc1cc2ccccc2o1)C(=O)NCc1ccc(OC(F)(F)F)cc1` (stereo not drawn) [compound 66, 2-[(Benzofuran-2-ylmethyl)-amino]-3-(1H-indol-3-yl)-2-methyl-N-(4-trifluoromethoxy-benzyl)-propionamide]: the IC50 worked out at 3440 nM.

Take `COc1ccc(CNC(=O)C(C)(Cc2c[nH]c3ccccc23)NCc2cc3ccccc3o2)cc1` (stereo not drawn) [compound 68, 2-[(Benzofuran-2-ylmethyl)-amino]-3-(1H-indol-3-yl)-N-(4-methoxy-benzyl)-2-methyl-propionamide]: the IC50 came out at 312 nM.

As for `CC(NC(=O)C(C)(Cc1c[nH]c2ccccc12)NCc1cc2ccccc2o1)c1ccccn1` (stereo not drawn) [compound 69, 2-[(Benzofuran-2-ylmethyl)-amino]-3-(1H-indol-3-yl)-2-methyl-N-(1-pyridin-2-yl-ethyl)-propionamide], the 50% inhibitory concentration (IC50) amounted to 12 nM.

With `CC(Cc1c[nH]c2ccccc12)(NCc1cc2ccccc2o1)C(=O)NCCC1CCCCC1` (stereo not drawn) [compound 70, 2-[(Benzofuran-2-ylmethyl)-amino]-N-(2-cyclohexyl-ethyl)-3-(1H-indol-3-yl)-2-methyl-propionamide], the IC50 was 216 nM.

With `Cc1ccc(CNC(=O)C(C)(Cc2c[nH]c3ccccc23)NCc2cc3ccccc3o2)cc1` (stereo not drawn) [compound 71, 2-[(Benzofuran-2-ylmethyl)-amino]-3-(1H-indol-3-yl)-2-methyl-N-(4-methyl-benzyl)-propionamide], the IC50 came out at 144 nM.
